# pIC50: −log10 of the molar value.
# Test system: human neutrophils
# Assay: Neutrophil Superoxide Anion (O2) Release Assay, PMA-stimulated
# Type: cell-based
# Conditions: Homo sapiens, Neutrophil, read-out: Neutrophil Superoxide Release IC50
# Description: Phorbol-12,13-myristate acetate (PMA) stimulates O2 production in human neutrophils which in turn reduces cytochrome C. Reducing cytochrome C increases absorbance and the change in optical density (OD) is proportional to the amount of O2 produced by PMA stimulation. Inhibition is expressed as an IC50 value and is the amount of test compound that will inhibit fifty percent of the PMA-stimulated respiratory outburst, i.e. O2^31 production (Lherer et al. (1981) J. Clinical lnvest. 68:1314; Roberts et al. (1982) J. Immunological Methods 49:193).
# Human donor blood in 0.38% Sodium Citrate was centrifuged for 10 minutes at 160 ×g at room temperature. Platelet-rich plasma was removed leaving the buffy coat and the red cell-enriched fraction. Saline with 0.38% Sodium Citrate was added to this fraction up to the original blood volume. The enriched blood sample was diluted 1:1 (v:v) with 3% dextran T500 (Pharmacia) in normal saline and placed in a 60 cc syringe, inverted over a beaker and allowed to settle 30 minutes at room temperature.
# Leukocyte-enriched plasma was removed from the syringe, placed into 50 ml polypropylene conical centrifuge tubes and underlaid with 15-20 ml Lymphocyte Separation Medium (LSM Organon Technica). The tubes were centrifuged for 40 minutes at 500×g at room temperature. The plasma, buffy coat and LSM were aspirated off the pellets which contained red blood cells and neutrophils.
# The pellets were vortexed and 10 ml ice-cold 0.2% NaCl was added to lyse the red blood cells while vortexing again for 10 seconds. Ice-cold 1.6% NaCl was added while vortexing for 10 seconds. The cells were combined from multiple tubes, centrifuged 10 min at 400×g at 4° C. This red cell lysis was repeated and the resulting neutrophil pellet was washed once in Reaction HBSS (GIBCO, HBSS with Ca^++ and Mg^++,.238% HEPES, 0.1% dextrose, 0.1% RIA grade bovine serum albumin, PH 7.2). The cells were resuspended in 1/5 the original blood volume with Reaction HBSS, counted and adjusted to 4.0×10^6 cells/ml at 4° C.
# Duplicate samples of neutrophils were tested in 12×75 mm polypropylene tubes containing 0.25 ml of the neutrophil suspension. Cytochrome C mix (0.25 ml, 6.0 mg/ml cytochrome C type IV (Sigma) plus 1200 U/ml bovine liver catalase (Sigma) in Reaction HBSS described above) was added. PMA was added at 2×the final concentration in 0.5 ml of Reaction HBSS. PMA final test concentration were 0.0, 0.3, 9.0, 27.0, and 81.0 ng/ml. The tubes were vortexed and incubated for 10 minutes at 37° C. with shaking. After chilling for 5 minutes at 4° C. and centrifuging for 10 minutes at 4° C., 550×g, 0.5 ml of supernatant was removed from each tube. Normal saline (0.5 ml) was added to each 0.5 ml sample of supernatant and the absorbance of each sample was read at 550 nm on a spectrophotometer (Shimadzu). The PMA concentration which gives nearly maximal stimulation of superoxide release was determined.
# The test samples of neutrophils were prepared as in the PMA dose response through addition of cytochrome C mix. Then 0.4 ml of Reaction HBSS as a control or test agent at 2.5×final test concentration was added and the tubes were vortexed and incubated for 30 minutes at 37° C. with shaking. PMA (0.1 ml) was added at a 10× concentration of the final concentration determined above. The samples were incubated for 10 minutes at 37° C. with shaking, chilled for 5 minutes at 4° C., and then centrifuged for 5 minutes at 550×g at 4° C. The supernatant (0.5 ml) was diluted with 0.5 ml normal saline as above and the absorbance was then determined at 550 nm. The percent change was calculated as follows: [formula] D-sphingosine (Sigma) used as reference standard.
# Human neutrophils were first isolated according to Lherer et al. ((1981) J. Clinical Invest. 68:1314) and then tested for stimulation of superoxide anion release with phorbol--12,13-myristate acetate (PMA) in a dose-dependent manner. […]
smiles,measurement,value
"CCCCCCCCCCCCC/C=C/[C@@H](O)[C@@H](N)CO [D--sphingosine, D-sphingosine, reference compound]",pIC50,5.55

# Reference: patent US5292737A, “N,N'-bis(sulfonamido)-2-amino-4-iminonaphthalen-1-ones and N,N'-bis(amido)-2-amino-4-iminonaphthalen-1-ones” (Sphinx Pharmaceuticals Corporation, priority 1992, dated 1994)
